Laboratory results reported in patent US10947227B2, “Tricyclic heterocyclic compounds as sting activators” (Incyte Corporation, priority 2018, dated 2021).

Test system: IRF3 activation in THP-1 Dual Cells
Assay: IRF3 activation assay in THP-1 Dual Cells (QUANTI-Blue readout)
Type: cell-based
Settings: Homo sapiens, THP1-Dual, 24 h
Method: THP-1 Dual Cells (Invivogen) were maintained in RPMI1640 medium with addition of 10% FBS, 100 μg/ml zeocin, 10 μg/ml blasticidin. Cells were added in a 96-well flat bottom assay plate at 100,000 per well in 100 μL complete RPMI medium. Test compounds were prepared by serial dilution in complete RPMI medium and 100 μL test compounds were transferred to each corresponding well. The assay plate was incubated at 37° C., 5% CO2 for 24 hours. After the overnight incubation, 20 μL of the culture supernatants were collected, followed by addition of 180 μL of QUANTI-Blue (Invivogen) to assess IRF3 activity. The amount of IRF3 activation was assessed by reading the absorbance at 620-655 nm with a microplate reader 2 hours later. The culture supernatant from the untreated THP-1 cells was used as the negative control. To determine the NF-κB activation, another 20 μL of culture supernatant were transferred to a 96-well white plate, followed by addition of 50 μL of Quanti-Luc™ assay solution (Invivogen). The amount of NF-κB activation induced by the test compounds were determined by the luminescence above the untreated control. EC50 determination was performed by fitting the curve of percent control activity versus the log of the compound concentration using the GraphPad Prism 6.0 software.

SMILES	EC50 (Table 1, 24 hours incubation) [µM]	EC50 (Table 2, 24 hours incubation) [µM]
CCn1nc(C)cc1C(=O)Nc1nc2cc(C(N)=O)cc(OCCCOC(=O)c3cc(C)nn3CC)c2n1C/C=C/Cn1c2nc(-c3cc(C)nn3CC)ncc2c2cc(C(N)=O)cc(OC)c21 [Example 15, (E)-3-((5-carbamoyl-1-(4-(6-carbamoyl-2-(1-ethyl-3-methyl-1H-pyrazol-5-yl)-8-methoxy-9H-pyrimido[4,5-b]indol-9-yl)but-2-en-1-yl)-2-(1-ethyl-3-methyl-1H-pyrazole-5-carboxamido)-1H-benzo[d]imidazol-7-yl)oxy)propyl 1-ethyl-3-methyl-1H-pyrazole-5-carboxylate]	< 0.2	< 0.05
CCn1nc(C)cc1C(=O)Nc1nc2cc(C(N)=O)cc(OCCCO)c2n1C/C=C/Cn1c2nc(-c3cc(C)nn3CC)ncc2c2cc(C(N)=O)cc(OC)c21 [Example 16, (E)-9-(4-(5-carbamoyl-2-(1-ethyl-3-methyl-1H-pyrazole-5-carboxamido)-7-(3-hydroxypropoxy)-1H-benzo[d]imidazol-1-yl)but-2-en-1-yl)-2-(1-ethyl-3-methyl-1H-pyrazol-5-yl)-8-methoxy-9H-pyrimido[4,5-b]indole-6-carboxamide]	< 0.2	< 0.05
CCn1nc(C)cc1C(=O)Nc1nc2cc(C(N)=O)cc(OCCCOC(=O)c3cc(C)nn3CC)c2n1C/C=C/Cn1c2ccc(C(N)=O)cc2c2cnc(-c3cc(C)nn3CC)nc21 [Example 17, (E)-3-((5-carbamoyl-1-(4-(6-carbamoyl-2-(1-ethyl-3-methyl-1H-pyrazol-5-yl)-9H-pyrimido[4,5-b]indol-9-yl)but-2-en-1-yl)-2-(1-ethyl-3-methyl-1H-pyrazole-5-carboxamido)-1H-benzo[d]imidazol-7-yl)oxy)propyl 1-ethyl-3-methyl-1H-pyrazole-5-carboxylate]	< 0.2	< 0.05
CCn1nc(C)cc1C(=O)Nc1nc2cc(C(N)=O)cc(OCCCO)c2n1C/C=C/Cn1c2ccc(C(N)=O)cc2c2cnc(-c3cc(C)nn3CC)nc21 [Example 18, (E)-9-(4-(5-carbamoyl-2-(1-ethyl-3-methyl-1H-pyrazole-5-carboxamido)-7-(3-hydroxypropoxy)-1H-benzo[d]imidazol-1-yl)but-2-en-1-yl)-2-(1-ethyl-3-methyl-1H-pyrazol-5-yl)-9H-pyrimido[4,5-b]indole-6-carboxamide]	< 0.2	< 0.05
CCn1nc(C)cc1C(=O)Nc1nc2cc(C(N)=O)cc(OCCCOC(=O)c3cc(C)nn3CC)c2n1C/C=C/Cn1c2nc(-c3cc(C)nn3CC)ncc2c2cc(C(N)=O)cc(OCCCN3CCOCC3)c21 [Example 19, (E)-3-((5-carbamoyl-1-(4-(6-carbamoyl-2-(1-ethyl-3-methyl-1H-pyrazol-5-yl)-8-(3-morpholinopropoxy)-9H-pyrimido[4,5-b]indol-9-yl)but-2-en-1-yl)-2-(1-ethyl-3-methyl-1H-pyrazole-5-carboxamido)-1H-benzo[d]imidazol-7-yl)oxy)propyl 1-ethyl-3-methyl-1H-pyrazole-5-carboxylate]	< 0.2	< 0.05
CCn1nc(C)cc1C(=O)Nc1nc2cc(C(N)=O)cc(OCCCO)c2n1C/C=C/Cn1c2nc(-c3cc(C)nn3CC)ncc2c2cc(C(N)=O)cc(OCCCN3CCOCC3)c21 [Example 20, (E)-9-(4-(5-carbamoyl-2-(1-ethyl-3-methyl-1H-pyrazole-5-carboxamido)-7-(3-hydroxypropoxy)-1H-benzo[d]imidazol-1-yl)but-2-en-1-yl)-2-(1-ethyl-3-methyl-1H-pyrazol-5-yl)-8-(3-morpholinopropoxy)-9H-pyrimido[4,5-b]indole-6-arboxamide]	< 0.2	< 0.05
CCn1nc(C)cc1C(=O)Nc1nc2cc(C(N)=O)cc(OCCCOC(=O)c3cc(C)nn3CC)c2n1C/C=C/Cn1c2nc(-c3cc(C)nn3CC)ncc2c2cc(C(N)=O)cc(OCCCOC)c21 [Example 21, (E)-3-((5-carbamoyl-1-(4-(6-carbamoyl-2-(1-ethyl-3-methyl-1H-pyrazol-5-yl)-8-(3-methoxypropoxy)-9H-pyrimido[4,5-b]indol-9-yl)but-2-en-1-yl)-2-(1-ethyl-3-methyl-1H-pyrazole-5-carboxamido)-1H-benzo[d]imidazol-7-yl)oxy)propyl 1-ethyl-3-methyl-1H-pyrazole-5-carboxylate]	< 0.2	< 0.05
CCn1nc(C)cc1C(=O)Nc1nc2cc(C(N)=O)cc(OCCCO)c2n1C/C=C/Cn1c2nc(-c3cc(C)nn3CC)ncc2c2cc(C(N)=O)cc(OCCCOC)c21 [Example 22, (E)-9-(4-(5-carbamoyl-2-(1-ethyl-3-methyl-1H-pyrazole-5-carboxamido)-7-(3-hydroxypropoxy)-1H-benzo[d]imidazol-1-yl)but-2-en-1-yl)-2-(1-ethyl-3-methyl-1H-pyrazol-5-yl)-8-(3-methoxypropoxy)-9H-pyrimido[4,5-b]indole-6-carboxamide]	< 0.2	< 0.05
CCn1nc(C)cc1C(=O)Nc1nc2cc(C(N)=O)cc(C)c2n1C/C=C/Cn1c2ccc(C(N)=O)cc2c2cnc(-c3cc(C)nn3CC)c(F)c21 [Example 23, (E)-5-(4-(5-carbamoyl-2-(1-ethyl-3-methyl-1H-pyrazole-5-carboxamido)-7-methyl-1H-benzo[d]imidazol-1-yl)but-2-en-1-yl)-3-(1-ethyl-3-methyl-1H-pyrazol-5-yl)-4-fluoro-5H-pyrido[4,3-b]indole-8-carboxamide]	< 0.2	0.05 to 0.2
CCn1nc(C)cc1C(=O)Nc1nc2cc(C(N)=O)cc(C)c2n1C/C=C/Cn1c2ccc(C(N)=O)cc2c2cc(F)c(-c3cc(C)nn3CC)nc21 [Example 24, (E)-9-(4-(5-carbamoyl-2-(1-ethyl-3-methyl-1H-pyrazole-5-carboxamido)-7-methyl-1H-benzo[d]imidazol-1-yl)but-2-en-1-yl)-2-(1-ethyl-3-methyl-1H-pyrazol-5-yl)-3-fluoro-9H-pyrido[2,3-b]indole-6-carboxamide]	< 0.2	< 0.05
CCn1nc(C)cc1C(=O)Nc1nc2cc(C(N)=O)cc(C)c2n1C/C=C/Cn1c2ccc(C(N)=O)cc2c2cc(C#N)c(-c3cc(C)nn3CC)nc21 [Example 25, (E)-9-(4-(5-carbamoyl-2-(1-ethyl-3-methyl-1H-pyrazole-5-carboxamido)-7-methyl-1H-benzo[d]imidazol-1-yl)but-2-en-1-yl)-3-cyano-2-(1-ethyl-3-methyl-1H-pyrazol-5-yl)-9H-pyrido[2,3-b]indole-6-carboxamide]	< 1	0.2 to 0.5
CCn1nc(C)cc1C(=O)Nc1nc2cc(C(N)=O)cc(C)c2n1C/C=C/Cn1c2ccc(C(N)=O)cc2c2cnc(-c3cc(C)nn3CC)c(C#N)c21 [Example 26, (E)-5-(4-(5-carbamoyl-2-(1-ethyl-3-methyl-1H-pyrazole-5-carboxamido)-7-methyl-1H-benzo[d]imidazol-1-yl)but-2-en-1-yl)-4-cyano-3-(1-ethyl-3-methyl-1H-pyrazol-5-yl)-5H-pyrido[4,3-b]indole-8-carboxamide]	< 1	0.5 to 1
CCn1nc(C)cc1C(=O)Nc1nc2cc(C(N)=O)cc(OCCCN3CCOCC3)c2n1C/C=C/Cn1c2nc(-c3cc(C)nn3CC)ncc2c2cc(C(N)=O)cc(OCCCOC)c21 [Example 27, (E)-9-(4-(5-carbamoyl-2-(1-ethyl-3-methyl-1H-pyrazole-5-carboxamido)-7-(3-morpholinopropoxy)-1H-benzo[d]imidazol-1-yl)but-2-en-1-yl)-2-(1-ethyl-3-methyl-1H-pyrazol-5-yl)-8-(3-methoxypropoxy)-9H-pyrimido[4,5-b]indole-6-carboxamide]	< 0.2	< 0.05
CCn1nc(C)cc1C(=O)Nc1nc2cc(C(N)=O)cc(O)c2n1C/C=C/Cn1c2nc(-c3cc(C)nn3CC)ncc2c2cc(C(N)=O)cc(OCCCOC)c21 [Example 28, (E)-9-(4-(5-carbamoyl-2-(1-ethyl-3-methyl-1H-pyrazole-5-carboxamido)-7-hydroxy-1H-benzo[d]imidazol-1-yl)but-2-en-1-yl)-2-(1-ethyl-3-methyl-1H-pyrazol-5-yl)-8-(3-methoxypropoxy)-9H-pyrimido[4,5-b]indole-6-carboxamide]	< 0.2	< 0.05
CCn1nc(C)cc1C(=O)Nc1nc2cc(C(N)=O)cc(OCCCC#N)c2n1C/C=C/Cn1c2nc(-c3cc(C)nn3CC)ncc2c2cc(C(N)=O)cc(OCCCOC)c21 [Example 29, (E)-9-(4-(5-carbamoyl-7-(3-cyanopropoxy)-2-(1-ethyl-3-methyl-1H-pyrazole-5-carboxamido)-1H-benzo[d]imidazol-1-yl)but-2-en-1-yl)-2-(1-ethyl-3-methyl-1H-pyrazol-5-yl)-8-(3-methoxypropoxy)-9H-pyrimido[4,5-b]indole-6-carboxamide]	–	< 0.05
CCn1nc(C)cc1C(=O)Nc1nc2cc(C(N)=O)cc(OC(C)C)c2n1C/C=C/Cn1c2nc(-c3cc(C)nn3CC)ncc2c2cc(C(N)=O)cc(OCCCOC)c21 [Example 30, (E)-9-(4-(5-carbamoyl-2-(1-ethyl-3-methyl-1H-pyrazole-5-carboxamido)-7-isopropoxy-1H-benzo[d]imidazol-1-yl)but-2-en-1-yl)-2-(1-ethyl-3-methyl-1H-pyrazol-5-yl)-8-(3-methoxypropoxy)-9H-pyrimido[4,5-b]indole-6-carboxamide]	–	0.05 to 0.2
